Results from patent US20250188044A1 (HARBIN MEDISAN PHARMACEUTICAL CO., LTD., priority 2021, published 2025).
pEC50: −log10 of the molar value. Where two headings read alike, the source gives them in different places.

Assays:
[1] = biological target: T1, PPARδ (Homo sapiens, UniProt Q03181); assay: Gal4-PPARδ(LBD) reporter gene agonistic activity assay in Cos-7 cells; type: cell-based; settings: for agonistic activity for PPARδ (EC50 level, in words): Cos-7 reporter assay
T1 construct: expressed in transfected cells; host or cells: Cos-7
T1 sequence (Q03181 139-441 limits assumed): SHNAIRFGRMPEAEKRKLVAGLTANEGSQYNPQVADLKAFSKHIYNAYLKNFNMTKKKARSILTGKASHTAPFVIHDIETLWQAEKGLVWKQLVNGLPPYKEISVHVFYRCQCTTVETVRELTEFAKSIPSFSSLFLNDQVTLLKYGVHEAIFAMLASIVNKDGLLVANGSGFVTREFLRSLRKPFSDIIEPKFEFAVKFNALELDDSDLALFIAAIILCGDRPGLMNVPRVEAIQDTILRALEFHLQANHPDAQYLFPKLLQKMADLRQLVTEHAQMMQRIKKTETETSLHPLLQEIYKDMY
Protocol: (§1) Cos-7 cells (African green monkey kidney fibroblasts, commonly used tool cells) were cultured in a 10 cm cell culture dish in a DMEM complete medium containing 10% fetal bovine serum. When the cells grew to a density of about 70%, the medium was replaced with a fresh medium for later transfection. […] The plasmid working solution was then added to the cell culture dish for cell transfection. […] Test compounds were prepared into appropriate test concentrations with a complete medium and then added to the 96-well plate. […] 10 μL of lysate was pipetted into a white opaque 384-well plate, and then 10 μL of reporter gene assay buffer (purchased from Shanghai Beyotime Biological Tech. Co., Ltd.) was added. The bioluminescence was detected by using a multimode microplate reader, and the corresponding half maximal effective concentration (EC50) value was calculated according to the detection value.

[2] = biological target: T2, PPARγ (Homo sapiens, UniProt P37231); assay: Gal4-PPARγ(LBD) reporter gene agonistic activity assay in Cos-7 cells; type: cell-based; settings: Cos-7 cells, Gal4-PPARγ(LBD) reporter, 16 h; 100% = Rosiglitazone 1 μM
T2 construct: hPPARγ (281aa-554aa); expressed in transfected cells; host or cells: Cos-7
T2 sequence (P37231 232-505 limits assumed): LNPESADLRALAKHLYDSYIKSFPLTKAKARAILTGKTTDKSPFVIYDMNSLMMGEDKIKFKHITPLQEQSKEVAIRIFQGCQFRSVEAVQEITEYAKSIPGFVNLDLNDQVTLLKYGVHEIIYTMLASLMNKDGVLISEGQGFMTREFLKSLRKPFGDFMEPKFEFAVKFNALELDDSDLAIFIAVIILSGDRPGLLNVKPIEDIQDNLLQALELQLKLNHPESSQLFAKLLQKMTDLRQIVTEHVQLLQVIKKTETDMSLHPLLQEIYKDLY
Protocol: as §1

[3] = Metabolic stability in human liver microsomes; type: in vitro ADME; settings: for half-life: human liver microsomes 0.75 mg/mL, NADPH, 0-60 min
Protocol: A 500 μM solution of the compound in acetonitrile was prepared and diluted to obtain a 1.5 μM drug working solution with a 0.1 M potassium phosphate solution. The drug working solution was co-incubated with a human liver microsome working solution at a final concentration of 0.75 mg/mL and an NADPH solution (final concentration: 550 μM), and the incubation was terminated by adding an acetonitrile solution at 0 min, 15 min, 30 min, 45 min, and 60 min. The residual amount of the compound that remained in the system at each time point was detected by using LC/MS. The absolute value k of the slope was determined by plotting the natural logarithm of the percentage of the residual amount of the compound with the time, and the calculation was performed according to the formula: T1/2 (half-life)=ln2/k=0.693/k.

[4] = biological target: T3, PPARα (Homo sapiens, UniProt Q07869); assay: Gal4-PPARα(LBD) reporter gene agonistic activity assay in Cos-7 cells; type: cell-based; settings: for pEC50: Cos-7 cells, Gal4-PPARα(LBD) reporter, 16 h, 100% = GW7647 10 nM; for agonistic activity for PPARα (EC50 level, in words): Cos-7 reporter assay
T3 construct: hPPARα (279aa-580aa); expressed in transfected cells; host or cells: Cos-7
T3 sequence (Q07869 167-468 limits assumed): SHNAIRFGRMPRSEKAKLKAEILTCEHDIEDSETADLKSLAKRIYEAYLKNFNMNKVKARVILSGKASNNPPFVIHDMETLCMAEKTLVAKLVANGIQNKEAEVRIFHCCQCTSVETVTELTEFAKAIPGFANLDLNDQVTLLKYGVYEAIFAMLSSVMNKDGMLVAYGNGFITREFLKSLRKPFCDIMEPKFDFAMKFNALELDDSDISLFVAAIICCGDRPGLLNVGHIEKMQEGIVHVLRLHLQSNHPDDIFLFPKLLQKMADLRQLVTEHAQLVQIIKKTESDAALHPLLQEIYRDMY
Protocol: as §1

[5] = Pharmacokinetic evaluation in rats; type: in vivo, SD rats
Protocol: Animals: 6 male SD rats, SPF grade, sourced from the animal repository of Shanghai Medicilon research institution.
The dose in the oral administration group was 10 mpk, and the dose in the intravenous injection group was 2 mpk.
All samples were centrifuged at 18,000 g for 7 min in a low-temperature centrifuge, and plasma was isolated. The content of the compound in the plasma was determined by LC-MS/MS-18, and relevant pharmacokinetic parameters were calculated from the plasma concentration data at different time points.

Compound | pEC50 ([1]; Cos-7 cells, Gal4-PPARδ(LBD) reporter, 16 h, 100% = GW501516 10 nM) | agonistic activity for PPARδ (EC50 level, in words) [1] | pEC50 [2] | metabolic stability in human liver microsomes (in words) [3] | half-life [3] | pEC50 [4] | agonistic activity for PPARα (EC50 level, in words) [4] | pEC50 [1] | pharmacokinetic properties (in words) [5] | Area under the curve AUC(0-∞) ([5]; intravenous injection, 2 mpk) | Half-life T1/2 ([5]; intravenous injection, 2 mpk) | Peak concentration Cmax ([5]; intravenous injection, 2 mpk) | Time-to-peak Tmax ([5]; intravenous injection, 2 mpk) | Area under the curve AUC(0-∞) ([5]; oral administration, 10 mpk) | Bioavailability F ([5]; oral administration, 10 mpk) | Half-life T1/2 ([5]; oral administration, 10 mpk) | Peak concentration Cmax ([5]; oral administration, 10 mpk) | Time-to-peak Tmax ([5]; oral administration, 10 mpk)
CCc1ccc(-n2cnn(Cc3cc(C)c(OC(C)(C)C(=O)O)c(C)c3)c2=O)cc1 [Compound 131, 2-(4-((4-(4-Ethylphenyl)-5-oxo-4,5-dihydro-1H-1,2,4-triazol-1-yl)methyl)-2,6-dimethylphenoxy)-2-methylpropionic acid] | 7.17 | at nanomolar levels | 5.93 | very good metabolic stability in human liver microsomes | > 2 h | 7.85 | at nanomolar levels |  |  |  |  |  |  |  |  |  |  | 
Cc1cc(Cn2ncn(-c3ccc(C(F)(F)F)cc3)c2=O)cc(Cl)c1OC(C)(C)C(=O)O [Compound 143, 2-(2-Chloro-6-methyl-4-((5-oxo-4-(4-(trifluoromethyl)phenyl)-4,5-dihydro-1H-1,2,4-triazol-1-yl)methyl)phenoxy)-2-methylpropionic acid] |  | at nanomolar levels | 5.75 | very good metabolic stability in human liver microsomes | > 2 h | 8.05 | at nanomolar levels | 7.82 |  |  |  |  |  |  |  |  |  | 
Cc1cc(Cn2ncn(-c3ccc(OC(F)(F)F)cc3)c2=O)cc(C(F)(F)F)c1OC(C)(C)C(=O)O [Compound 163, 2-Methyl-2-(2-methyl-4-((5-oxo-4-(4-(trifluoromethoxy)phenyl)-4,5-dihydro-1H-1,2,4-triazol-1-yl)methyl)-6-(trifluoromethyl)phenoxy)propionic acid] |  | at nanomolar levels |  |  | > 2 h | 7.46 | at nanomolar levels | 8.22 | relatively good pharmacokinetic properties | 15851.97 ± 3557.93 ng·h/mL | 12.71 ± 8.67 h | 10864.30 ± 719.85 ng/mL | 0.08 ± 0.00 h | 39483.83 ± 5363.60 ng·h/mL | 53.24% | 6.86 ± 0.34 h | 5474.28 ± 1232.94 ng/mL | 0.25 ± 0.00 h
